Laboratory results taken from PMC10683025, “Discovery of a Hydroxylamine-Based Brain-Penetrant EGFR Inhibitor for Metastatic Non-Small-Cell Lung Cancer” (Journal of Medicinal Chemistry, 2023).
In brackets after ≈: the same amount, converted by molar mass. Read-outs that look alike come from different tables or passages of the source. Values belong to the compound of their own block, whether it stands above or below them.

Columns and labels:
[1] = parameters: method as in ref 56−59; settings: ref 56−59; cited from earlier work
[2] = tested on: NCI-H3255 (EGFR mutation = L858R); experiment: CellTiter-Glo cell viability assay; type: cell-based, human; settings: 72 h, unadjusted for FBS
[3] = tested on: HCC827 (EGFR mutation = exon19del); experiment: CellTiter-Glo cell viability assay; type: cell-based, human; settings: 72 h, unadjusted for FBS
[4] = tested on: ZR-75-30 (HER2-positive breast cancer); experiment: CellTiter-Glo cell viability assay; type: cell-based, human; settings: 72 h, unadjusted for FBS
Procedure: (§1) The A431, HCC827, SK-BR-3, ZR-75–30, AU565, and Caco-2 cell lines were obtained from ATCC. The NCI-H1975 cell line was obtained from SIBS. The NCI-H3255 cell line was obtained from CoBioer. Engineered Ba/F3 cell lines were obtained from Crown Bioscience. MCKII-MDR1 cells were obtained from The Netherlands Cancer Institute. HEK293 cells were obtained from Invitrogen. A431 cells were cultured in DMEM (Life Technologies) with 10% FBS. HCC827, NCI-H1975, and AU565 cells were cultured in RPMI1640 (Invitrogen) with 10% FBS. NCI-H3255 cells were cultured in BEGM (Lonza) with 10% FBS. Ba/F3 EGFR-del E746_A750/C797S and Ba/F3 EGFR-L858R/C797S cells were cultured in RPMI (Invitrogen) with 10% FBS. SK-BR-3 cells were cultured in McCoy’s 5a (Invitrogen) with 10% FBS. ZR-75-30 cells were cultured in RPMI1640 (Invitrogen) with 20% FBS. Caco-2 and MCKII-MDR1 culture information is given in the Permeability Studies section. HEK293 cells were cultured in DMEM (Gibco) with 10% FBS, 0.1 mM NEAA, 25 mM HEPES, 100 U/mL penicillin-streptomycin, μg/mL blasticidin, and 400 μg/mL Geneticin. All cells were cultured in a humidified incubator with 5% CO2 at 37 °C.
(§2) Viability assays using A431, HCC827, NCI-H1975, NCI-H3255, Ba/F3 EGFR-del E746_A750/C797S, Ba/F3 EGFR-L858R/C797S, AU565, SK-BR-3, and ZR-75-30 cells were performed at Crown BioScience. Cells were plated into 96-well plates at 1500–7000 cells per well and dosed in triplicate (n = 3) in a nine-point, 4-fold dilution series with compounds (0.15 nM to 10 μM) in DMSO and incubated for 72 h. After 72 h, cell viability was assayed by CellTiter-Glo Luminescent Viability Assay (Promega). Dose–response curves were generated and used to calculate the IC50 values which were calculated on GraphPad Prism from the nonlinear regression equation fitted with a sigmoidal dose response and are presented as mean ± SEM.

[5] = tested on: AU565 (HER2-positive breast cancer); experiment: CellTiter-Glo cell viability assay; type: cell-based, human; settings: 72 h, unadjusted for FBS
Procedure: as §1, §2

[6] = tested on: NCI-H1975 (EGFR mutation = L858R/T790M); experiment: CellTiter-Glo cell viability assay; type: cell-based, human; settings: 72 h, unadjusted for FBS
Procedure: as §1, §2

[7] = tested on: A431 cell line (overexpressed EGFRwt); experiment: CellTiter-Glo cell viability assay; type: cell-based, human; settings: 72 h, unadjusted for FBS
Procedure: as §1, §2

[8] = tested on: SK-BR-3 (HER2-positive breast cancer); experiment: CellTiter-Glo cell viability assay; type: cell-based, human; settings: 72 h, unadjusted for FBS
Procedure: as §1, §2

[9] = tested on: Ba/F3 EGFR-L858R/C797S cells; experiment: CellTiter-Glo cell viability assay; type: cell-based; settings: 72 h, unadjusted for FBS
Procedure: as §1, §2

[10] = tested on: Ba/F3 EGFR-del E746_A750/C797S cells; experiment: CellTiter-Glo cell viability assay; type: cell-based; settings: 72 h, unadjusted for FBS
Procedure: as §1, §2

[11] = Metabolic stability in liver microsomes; type: in vitro ADME, Sprague-Dawley rat; settings: for Remaining Percentage: rat LM
Solubility assay = type: physicochemical; settings: buffer, pH 7.4, aqueous buffer; read-out: Aq. Sol.
Procedure: Solubility was determined by Pharmaron, Inc. and each compound was assessed in duplicate (n = 2) by adding 15 μL of compound stock solution (10 mM in DMSO) into a 96-well plate along with 485 μL of buffer followed by shaking at 25 °C, 1100 rpm for 2 h. Wells were filtered, and samples (5 μL) were taken followed by dilution with an equal volume of DMSO (5 μL) and 490 μL of aqueous solution. Samples were analyzed by LC-MS/MS.

[12] = Metabolic stability in liver microsomes; type: in vitro ADME, human; settings: for Remaining Percentage: human LM
EGFRL858R [13] = target: T1, EGFRL858R (Homo sapiens, UniProt P00533, L858R); experiment: KINOMEScan KdELECT Kd determination; type: binding; parameters: purchased Eurofins DiscoverX (contract assay); settings: L858R
EGFRwt [14] = target: T2, EGFRwt (Homo sapiens, UniProt P00533); experiment: KINOMEScan KdELECT Kd determination; type: binding; settings: wt; read-out: EGFR Kd
T2 construct: purchased Eurofins DiscoverX (contract assay)

EGFRL858R [15] = target: T1, EGFRL858R; experiment: KinaseProfiler enzymatic radiometric assay; type: biochemical; parameters: purchased Eurofins Cerep (KinaseProfiler, contract assay); settings: ATP 10 μM, read-out: EGFR IC50
[16] = Lipophilicity, shake-flask; type: physicochemical; settings: 1-octanol/PBS; 1-octanol and PBS (pH 7.4); read-out: logD7.4
Procedure: Compound lipophilicity was determined by Pharmaron, Inc. using the shake-flask method with 1-octanol and PBS (pH 7.4). Each compound was assessed in duplicate (n = 2) at 1 μM in a 96-well plate shaken at 25 °C and 2000 rpm for 2 h. Samples were analyzed by liquid chromatography and tandem mass spectrometry (LC-MS/MS).

EGFR del E746_A750 = target: T3, EGFR del E746_A750 (Homo sapiens, UniProt P00533, DEL746-750); experiment: KINOMEScan KdELECT Kd determination; type: binding
T3 construct: purchased Eurofins DiscoverX (contract assay)

EGFRwt [17] = target: T2, EGFRwt; experiment: KinaseProfiler enzymatic radiometric assay; type: biochemical; settings: wt, ATP 10 μM; read-out: EGFR IC50
MDR1 = experiment: MDCKII-MDR1 permeability; type: in vitro ADME, canine; settings: dog, MDCK-MDR1
MDCKII-MDR1 permeability = type: in vitro ADME, canine; settings: dog, MDCK-MDR1, MDCKII-MDR1
Caco-2 permeability = type: in vitro ADME; settings: human; for recovery at 2 h, 5 μM: Caco-2, Caco-2

T1 sequence (P00533 25-1210 L858R): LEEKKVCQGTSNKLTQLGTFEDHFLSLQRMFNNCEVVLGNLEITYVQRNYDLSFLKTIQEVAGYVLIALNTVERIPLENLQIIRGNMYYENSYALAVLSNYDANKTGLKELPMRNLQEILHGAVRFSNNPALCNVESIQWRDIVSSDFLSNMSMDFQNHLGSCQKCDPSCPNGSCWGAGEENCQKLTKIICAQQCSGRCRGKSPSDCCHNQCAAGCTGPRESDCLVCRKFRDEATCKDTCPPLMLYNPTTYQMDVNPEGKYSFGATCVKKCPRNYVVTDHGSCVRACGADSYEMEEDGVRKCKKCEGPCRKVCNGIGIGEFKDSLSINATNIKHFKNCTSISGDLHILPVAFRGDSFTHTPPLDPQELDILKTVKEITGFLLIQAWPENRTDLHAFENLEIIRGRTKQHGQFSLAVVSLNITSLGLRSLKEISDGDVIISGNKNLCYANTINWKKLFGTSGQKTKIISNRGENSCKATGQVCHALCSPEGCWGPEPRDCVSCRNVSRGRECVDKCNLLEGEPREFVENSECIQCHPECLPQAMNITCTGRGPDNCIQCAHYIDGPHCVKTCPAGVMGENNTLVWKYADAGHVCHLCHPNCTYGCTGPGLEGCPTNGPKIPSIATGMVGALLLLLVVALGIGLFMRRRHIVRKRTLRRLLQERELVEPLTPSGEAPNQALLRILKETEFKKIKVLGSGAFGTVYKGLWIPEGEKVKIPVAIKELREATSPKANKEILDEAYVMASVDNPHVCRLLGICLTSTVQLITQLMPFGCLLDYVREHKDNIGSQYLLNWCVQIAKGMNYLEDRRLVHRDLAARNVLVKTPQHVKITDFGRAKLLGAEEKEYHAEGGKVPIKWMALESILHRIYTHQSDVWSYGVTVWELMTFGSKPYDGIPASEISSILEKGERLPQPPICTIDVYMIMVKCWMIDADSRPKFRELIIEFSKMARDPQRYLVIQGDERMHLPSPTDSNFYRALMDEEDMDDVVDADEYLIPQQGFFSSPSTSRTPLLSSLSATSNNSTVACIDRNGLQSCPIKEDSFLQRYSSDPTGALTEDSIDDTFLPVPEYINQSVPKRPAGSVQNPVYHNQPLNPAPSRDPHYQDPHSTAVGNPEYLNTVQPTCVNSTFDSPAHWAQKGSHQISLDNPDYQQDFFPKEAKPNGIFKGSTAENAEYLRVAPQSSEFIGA
T2 sequence (P00533 25-1210): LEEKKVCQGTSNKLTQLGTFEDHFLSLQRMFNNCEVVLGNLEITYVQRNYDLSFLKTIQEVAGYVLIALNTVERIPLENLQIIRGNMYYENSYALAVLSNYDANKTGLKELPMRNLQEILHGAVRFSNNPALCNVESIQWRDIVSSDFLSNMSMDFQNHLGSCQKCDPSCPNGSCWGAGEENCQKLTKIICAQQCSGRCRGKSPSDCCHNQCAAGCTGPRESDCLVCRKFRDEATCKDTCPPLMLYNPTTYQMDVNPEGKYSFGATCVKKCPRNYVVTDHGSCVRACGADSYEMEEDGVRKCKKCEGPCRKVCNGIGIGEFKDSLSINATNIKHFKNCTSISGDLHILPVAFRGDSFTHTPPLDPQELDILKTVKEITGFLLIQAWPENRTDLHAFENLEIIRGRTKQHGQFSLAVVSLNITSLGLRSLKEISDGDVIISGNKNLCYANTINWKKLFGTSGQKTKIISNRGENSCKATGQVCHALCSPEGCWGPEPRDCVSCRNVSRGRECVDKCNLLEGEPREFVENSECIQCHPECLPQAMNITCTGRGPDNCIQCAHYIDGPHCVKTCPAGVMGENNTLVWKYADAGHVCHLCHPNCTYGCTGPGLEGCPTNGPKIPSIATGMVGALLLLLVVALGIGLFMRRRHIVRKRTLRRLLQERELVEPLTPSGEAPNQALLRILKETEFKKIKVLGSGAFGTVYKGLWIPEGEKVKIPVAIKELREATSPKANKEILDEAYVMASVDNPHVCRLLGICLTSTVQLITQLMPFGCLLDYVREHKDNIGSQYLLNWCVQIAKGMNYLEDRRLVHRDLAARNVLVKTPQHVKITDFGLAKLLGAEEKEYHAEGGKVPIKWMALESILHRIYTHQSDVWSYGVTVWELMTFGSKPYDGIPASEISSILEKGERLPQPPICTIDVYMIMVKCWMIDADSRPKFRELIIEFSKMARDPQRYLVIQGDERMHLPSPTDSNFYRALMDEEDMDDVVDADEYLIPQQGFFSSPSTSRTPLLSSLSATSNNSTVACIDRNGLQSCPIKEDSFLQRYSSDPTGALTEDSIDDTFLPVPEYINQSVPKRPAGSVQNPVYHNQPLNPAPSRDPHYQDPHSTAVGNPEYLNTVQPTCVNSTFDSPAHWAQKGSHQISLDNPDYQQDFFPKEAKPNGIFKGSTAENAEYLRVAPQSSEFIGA
T3 sequence (P00533 with tags, fused parts or gaps DEL746-750): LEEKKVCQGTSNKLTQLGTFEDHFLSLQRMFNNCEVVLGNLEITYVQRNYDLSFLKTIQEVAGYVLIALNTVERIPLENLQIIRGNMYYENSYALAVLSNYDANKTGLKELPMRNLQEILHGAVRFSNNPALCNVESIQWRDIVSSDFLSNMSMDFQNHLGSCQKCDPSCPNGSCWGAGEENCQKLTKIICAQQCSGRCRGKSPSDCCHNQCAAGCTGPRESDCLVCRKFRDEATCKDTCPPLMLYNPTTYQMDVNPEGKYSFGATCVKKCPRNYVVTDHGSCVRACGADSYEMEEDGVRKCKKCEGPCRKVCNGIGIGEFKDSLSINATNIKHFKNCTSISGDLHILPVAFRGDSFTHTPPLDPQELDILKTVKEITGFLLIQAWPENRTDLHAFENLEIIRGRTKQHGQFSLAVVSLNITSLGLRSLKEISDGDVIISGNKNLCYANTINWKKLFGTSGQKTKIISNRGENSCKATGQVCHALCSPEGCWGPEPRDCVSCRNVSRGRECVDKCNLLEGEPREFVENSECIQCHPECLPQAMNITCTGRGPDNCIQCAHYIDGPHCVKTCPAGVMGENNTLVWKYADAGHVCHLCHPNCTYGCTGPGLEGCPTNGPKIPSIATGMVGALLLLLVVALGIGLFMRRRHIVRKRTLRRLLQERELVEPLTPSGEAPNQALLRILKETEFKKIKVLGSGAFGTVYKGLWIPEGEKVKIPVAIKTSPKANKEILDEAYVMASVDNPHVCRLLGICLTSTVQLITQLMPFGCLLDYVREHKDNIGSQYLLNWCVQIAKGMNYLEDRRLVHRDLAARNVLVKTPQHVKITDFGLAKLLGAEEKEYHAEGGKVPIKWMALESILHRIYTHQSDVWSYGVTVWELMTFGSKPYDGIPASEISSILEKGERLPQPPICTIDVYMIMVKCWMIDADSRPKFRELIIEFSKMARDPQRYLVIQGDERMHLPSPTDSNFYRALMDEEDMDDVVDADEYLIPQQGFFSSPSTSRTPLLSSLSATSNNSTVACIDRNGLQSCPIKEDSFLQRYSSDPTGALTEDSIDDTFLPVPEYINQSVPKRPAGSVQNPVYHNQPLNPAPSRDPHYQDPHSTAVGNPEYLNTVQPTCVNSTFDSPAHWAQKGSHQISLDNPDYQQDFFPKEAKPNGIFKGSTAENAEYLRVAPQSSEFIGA

SMILES: COc1cc2ncnc(Nc3cccc(Cl)c3F)c2cc1OC(=O)N1CCN(C)C[C@H]1C [AZD3759]
Kp,uu brain (AUC0-7h) [1]: 1.3

SMILES: N.N.[Cl][Pt][Cl] [Cisplatin, reference compound]
IC50 [2]: > 10000 nM | IC50 [3]: > 10000 nM | IC50 [4]: 4180 nM | IC50 [5]: 2570 nM | IC50 [6]: 8800 nM | IC50 [7]: 4150 nM | IC50 [8]: 1960 nM | IC50 [9]: 411 ± 10 nM | IC50 [10]: 361 ± 15 nM

half-life at 1 h, 1 µM ([11]; Sprague-Dawley, rat, liver microsomes, read-out: LM t1/2): 22.4 min | microsomal CLint at 1 h, 1 µM ([11]; Sprague-Dawley, rat, liver microsomes, read-out: LMClint): 62 µL/min/mg | Remaining Percentage ([11]; +Cofactors, 15 min): 58.02% | Remaining Percentage ([11]; +Cofactors, 30 min): 32.28% | Remaining Percentage ([11]; +Cofactors, 45 min): 22.82% | Remaining Percentage ([11]; +Cofactors, 60 min): 15.90% | Remaining Percentage ([11]; -Cofactors, 60 min): 97.68% | solubility kinetic at 2 h (Solubility assay): 18 µM (≈ 8.31 µg/mL) | IC50 ([2]; Homo sapiens, NCI-H3255): 37 nM | Remaining Percentage ([12]; +Cofactors, 15 min): 60.04% | Remaining Percentage ([12]; +Cofactors, 30 min): 39.49% | Remaining Percentage ([12]; +Cofactors, 45 min): 24.83% | Remaining Percentage ([12]; +Cofactors, 60 min): 20.34% | Remaining Percentage ([12]; -Cofactors, 60 min): 95.02% | half-life at 1 h, 1 µM ([12]; human, liver microsomes, read-out: LM t1/2): 25.4 min | microsomal CLint at 1 h, 1 µM ([12]; human, liver microsomes, read-out: LMClint): 55 µL/min/mg | Kd (EGFRL858R [13]): 0.6 nM | IC50 ([3]; Homo sapiens, HCC827): 15 nM | Kd (EGFRwt [14]): 0.8 nM | IC50 (EGFRL858R [15]): 2 nM | logD at 2 h, 1 µM [16]: 3.3 | Kd (EGFR del E746_A750): 0.4 nM | IC50 (EGFRwt [17]): 3 nM | efflux ratio at 2 h, 1 µM (MDR1): 8.7 | efflux ratio at 2 h, 1 μM (MDR1): 8.65 | Papp A→B at 2 h, 1 µM (MDR1; 1 μM, 2 h): 1.4 ×10⁻⁶ cm/s | Papp A→B at 2 h, 1 μM (MDR1; 1 μM, 2 h): 1.35 ×10⁻⁶ cm/s | Papp B→A at 2 h, 1 µM (MDR1; 1 μM, 2 h): 11.7 ×10⁻⁶ cm/s | Papp B→A at 2 h, 1 μM (MDR1; 1 μM, 2 h): 11.7 ×10⁻⁶ cm/s | recovery at 2 h, 1 μM (MDCKII-MDR1 permeability; read-out: Recovery% (AP-BL)): 58.6% | recovery at 2 h, 1 μM (MDCKII-MDR1 permeability; read-out: Recovery% (BL-AP)): 76.1% | efflux ratio at 2 h, 5 µM (Caco-2 permeability; Caco-2): 20.2 | efflux ratio at 2 h, 5 μM (Caco-2 permeability; Caco-2): 19.3 | recovery at 2 h, 5 μM (Caco-2 permeability; read-out: Recovery% (AP-BL)): 63.3% | recovery at 2 h, 5 μM (Caco-2 permeability; read-out: Recovery% (BL-AP)): 72.3% | Papp A→B at 2 h, 5 µM (Caco-2 permeability; Caco-2, 5 μM, 2 h): 0.6 ×10⁻⁶ cm/s | Papp A→B at 2 h, 5 μM (Caco-2 permeability; Caco-2, 5 μM, 2 h): 0.63 ×10⁻⁶ cm/s | Papp B→A at 2 h, 5 µM (Caco-2 permeability; Caco-2, 5 μM, 2 h): 12.1 ×10⁻⁶ cm/s
SMILES: COc1cc2ncnc(Nc3ccc(F)c(Cl)c3)c2cc1OCCON1CCN(C)CC1 [Compound 8, N-(3-Chloro-4-fluorophenyl)-7-methoxy-6-(2-((4-methylpiperazin-1-yl)oxy)ethoxy)quinazolin-4-amine]

SMILES: Fc1c(Br)cccc1Nc1ncnc2cc3c(cc12)OCCO3 [JCN037]
Kp,uu brain (AUC0-7h) [1]: 1.3
